Measured values: ChEMBL document CHEMBL1145677, “In Vitro Action of ent -Manoyl Oxides against Leishmania donovani” (1997)

Legend:
Format in all cases: functional
[1] = system: Leishmania donovani; experiment: Antileishmanial activity against Leishmania donovani LCR-L133 promastigotes at 100 […] after 24 hrs relative to control
[2] = system: Leishmania donovani; experiment: Antileishmanial activity against Leishmania donovani LCR-L133 promastigotes at 1 […] after 24 hrs relative to control
[3] = system: Leishmania donovani; experiment: Antileishmanial activity against Leishmania donovani LCR-L133 promastigotes at 1 […] after 72 hrs relative to control
[4] = system: Leishmania donovani; experiment: Antileishmanial activity against Leishmania donovani LCR-L133 promastigotes at 1 […] after 48 hrs relative to control
[5] = system: Leishmania donovani; experiment: Antileishmanial activity against Leishmania donovani LCR-L133 promastigotes at 100 […] after 48 hrs relative to control
[6] = system: Leishmania donovani; experiment: Antileishmanial activity against Leishmania donovani LCR-L133 promastigotes at 100 […] after 72 hrs relative to control
[7] = system: Leishmania donovani; experiment: Antileishmanial activity against Leishmania donovani LCR-L133 promastigotes at 10 […] after 72 hrs relative to control
[8] = system: Leishmania donovani; experiment: Antileishmanial activity against Leishmania donovani LCR-L133 promastigotes at 10 […] after 24 hrs relative to control
[9] = system: Leishmania donovani; experiment: Antileishmanial activity against Leishmania donovani LCR-L133 promastigotes at 10 […] after 48 hrs relative to control
[10] = system: Leishmania donovani; experiment: Antileishmanial activity against Leishmania donovani LCR-L133 amastigotes at 1 ug/ml after 24 hrs relative to control
[11] = system: Leishmania donovani; experiment: Antileishmanial activity against Leishmania donovani LCR-L133 amastigotes at 1 ug/ml after 72 hrs relative to control
[12] = system: Leishmania donovani; experiment: Antileishmanial activity against Leishmania donovani LCR-L133 amastigotes at 100 ug/ml after 72 hrs relative to control
[13] = system: Leishmania donovani; experiment: Antileishmanial activity against Leishmania donovani LCR-L133 amastigotes at 10 ug/ml after 48 hrs relative to control
[14] = system: Leishmania donovani; experiment: Antileishmanial activity against Leishmania donovani LCR-L133 amastigotes at 10 ug/ml after 24 hrs relative to control
[15] = system: Leishmania donovani; experiment: Antileishmanial activity against Leishmania donovani LCR-L133 amastigotes at 10 ug/ml after 72 hrs relative to control
[16] = system: Leishmania donovani; experiment: Antileishmanial activity against Leishmania donovani LCR-L133 amastigotes at 100 ug/ml after 48 hrs relative to control
[17] = system: Leishmania donovani; experiment: Antileishmanial activity against Leishmania donovani LCR-L133 amastigotes at 100 ug/ml after 24 hrs relative to control
[18] = system: Leishmania donovani; experiment: Antileishmanial activity against Leishmania donovani LCR-L133 amastigotes at 1 ug/ml after 48 hrs relative to control

MEGLUMINE ANTIMONATE gave an Activity [1] of 70%, an Activity [2] of 4% and an Activity [3] of 39%. For the same compound, the Activity [4] was 20%, the Activity [5] was 74% and the Activity [6] was 76%. For the same compound, the Activity [7] was 42%, the Activity [8] was 28% and the Activity [9] was 40%.
Work on `C=C[C@@]1(C)CC[C@H]2[C@]3(C)CC[C@@H](O)C(C)(C)[C@H]3[C@@H](O)C[C@]2(C)O1` yielded an Activity [1] of 0%, an Activity [10] of 0% and an Activity [2] of 0%. For the same compound, the Activity [11] was 14%, the Activity [12] was 67% and the Activity [13] was 24%. The Activity [14] was 10%, the Activity [15] was 33% and the Activity [3] was 0%. It also gave an Activity [4] of 0%, an Activity [16] of 51% and an Activity [17] of 34%. It also gave an Activity [5] of 52%, an Activity [6] of 0% and an Activity [7] of 0%. It also gave an Activity [8] of 0%, an Activity [9] of 0% and an Activity [18] of 0%.
`C=C[C@]1(CO)CC[C@H]2[C@]3(C)CCC(=O)[C@](C)(C(=O)OC)[C@H]3CC[C@]2(C)O1` was tested, and the Activity [1] was 0%, the Activity [10] was 0% and the Activity [2] was 0%. The Activity [11] was 0%, the Activity [12] was 19% and the Activity [13] was 0%. For the same compound, the Activity [14] was 0%, the Activity [15] was 0% and the Activity [3] was 0%. It also gave an Activity [4] of 0%, an Activity [16] of 14% and an Activity [17] of 9%. For the same compound, the Activity [5] was 22%, the Activity [6] was 34% and the Activity [7] was 0%. It also gave an Activity [8] of 0%, an Activity [9] of 0% and an Activity [18] of 0%.
`C=C[C@@]1(C)CC[C@H]2[C@]3(C)CC[C@@H](O)C(C)(C)[C@H]3CC[C@]2(C)O1` showed an Activity [1] of 27%, an Activity [10] of 0% and an Activity [2] of 0%. For the same compound, the Activity [11] was 0%, the Activity [12] was 39% and the Activity [13] was 13%. The Activity [14] was 0%, the Activity [15] was 18% and the Activity [3] was 0%. The Activity [4] was 0%, the Activity [16] was 25% and the Activity [17] was 17%. It also gave an Activity [5] of 70%, an Activity [6] of 52% and an Activity [7] of 0%. The Activity [8] was 0%, the Activity [9] was 0% and the Activity [18] was 7%.
`C=C[C@]1(C)O[C@@]2(C)CC[C@@H]3C(C)(C)[C@H](O)CC[C@@]3(C)[C@@H]2C[C@@H]1O` showed an Activity [1] of 0%, an Activity [10] of 0% and an Activity [2] of 0%. The Activity [11] was 0%, the Activity [12] was 35% and the Activity [13] was 6%. For the same compound, the Activity [14] was 0%, the Activity [15] was 11% and the Activity [3] was 0%. It also gave an Activity [4] of 0%, an Activity [16] of 31% and an Activity [17] of 15%. It also gave an Activity [5] of 31%, an Activity [6] of 0% and an Activity [7] of 0%. It also gave an Activity [8] of 0%, an Activity [9] of 0% and an Activity [18] of 0%.
For `C=C[C@]1(C)O[C@@]2(C)C[C@H](O)[C@@H]3C(C)(C)[C@H](O)CC[C@@]3(C)[C@@H]2CC1=O`, the Activity [1] was 0%, the Activity [10] was 0% and the Activity [2] was 0%. It also gave an Activity [11] of 0%, an Activity [12] of 19% and an Activity [13] of 0%. For the same compound, the Activity [14] was 0%, the Activity [15] was 0% and the Activity [3] was 0%. The Activity [4] was 0%, the Activity [16] was 15% and the Activity [17] was 14%. It also gave an Activity [5] of 0%, an Activity [6] of 0% and an Activity [7] of 0%. It also gave an Activity [8] of 0%, an Activity [9] of 0% and an Activity [18] of 0%.
With `C=C[C@]1(C)O[C@@]2(C)CC[C@@H]3C(C)(C)[C@H](O)CC[C@@]3(C)[C@@H]2C[C@H]1O` [VARODIOL] the Activity [1] was 0%, the Activity [10] was 0% and the Activity [2] was 0%. It also gave an Activity [11] of 0%, an Activity [12] of 33% and an Activity [13] of 7%. It also gave an Activity [14] of 0%, an Activity [15] of 12% and an Activity [3] of 0%. For the same compound, the Activity [4] was 0%, the Activity [16] was 29% and the Activity [17] was 12%. It also gave an Activity [5] of 63%, an Activity [6] of 0% and an Activity [7] of 0%. It also gave an Activity [8] of 0%, an Activity [9] of 0% and an Activity [18] of 0%.
`C=C[C@]1(C)O[C@@]2(C)CC[C@@H]3C(C)(C)C(=O)CC[C@@]3(C)[C@@H]2CC1=O` showed an Activity [1] of 0%, an Activity [10] of 0% and an Activity [2] of 0%. For the same compound, the Activity [11] was 0%, the Activity [12] was 36% and the Activity [13] was 7%. The Activity [14] was 0%, the Activity [15] was 11% and the Activity [3] was 0%. It also gave an Activity [4] of 0%, an Activity [16] of 31% and an Activity [17] of 22%. For the same compound, the Activity [5] was 25%, the Activity [6] was 0% and the Activity [7] was 0%. The Activity [8] was 0%, the Activity [9] was 0% and the Activity [18] was 0%.
Compound `C=C[C@@]1(CO)CC[C@H]2[C@]3(C)CCC[C@](C)(C(=O)OC)[C@H]3CC[C@]2(C)O1` has an Activity [1] of 0%, an Activity [10] of 0% and an Activity [2] of 0%. For the same compound, the Activity [11] was 13%, the Activity [12] was 67% and the Activity [13] was 26%. The Activity [14] was 17%, the Activity [15] was 35% and the Activity [3] was 0%. The Activity [4] was 0%, the Activity [16] was 58% and the Activity [17] was 47%. For the same compound, the Activity [5] was 62%, the Activity [6] was 79% and the Activity [7] was 0%. The Activity [8] was 0%, the Activity [9] was 0% and the Activity [18] was 12%.
For `C=C[C@]1(C)O[C@@]2(C)CC[C@@H]3C(C)(C)[C@@H](OC(C)=O)CC[C@@]3(C)C2=CC1=O`, the Activity [1] was 100%, the Activity [10] was 0% and the Activity [2] was 0%. The Activity [11] was 12%, the Activity [12] was 50% and the Activity [13] was 21%. For the same compound, the Activity [14] was 12%, the Activity [15] was 34% and the Activity [3] was 0%. The Activity [4] was 0%, the Activity [16] was 45% and the Activity [17] was 32%. For the same compound, the Activity [5] was 100%, the Activity [6] was 100% and the Activity [7] was 0%. The Activity [8] was 0%, the Activity [9] was 0% and the Activity [18] was 0%.
In the case of `C=C[C@]1(C)O[C@@]2(C)C[C@H](O)[C@@H]3C(C)(C)[C@H](O)CC[C@@]3(C)[C@@H]2C[C@@H]1O`, the Activity [1] is reported as 0%, the Activity [10] is reported as 0% and the Activity [2] is reported as 0%. For the same compound, the Activity [11] was 0%, the Activity [12] was 50% and the Activity [13] was 11%. The Activity [14] was 7%, the Activity [15] was 16% and the Activity [3] was 0%. The Activity [4] was 0%, the Activity [16] was 46% and the Activity [17] was 35%. The Activity [5] was 0%, the Activity [6] was 0% and the Activity [7] was 0%. It also gave an Activity [8] of 0%, an Activity [9] of 0% and an Activity [18] of 0%.
`C=C[C@@]1(C)CC[C@H]2[C@]3(C)CCC(=O)C(C)(C)[C@H]3CC[C@]2(C)O1` was tested, and the Activity [1] was 51%, the Activity [10] was 0% and the Activity [2] was 0%. For the same compound, the Activity [11] was 10%, the Activity [12] was 56% and the Activity [13] was 17%. The Activity [14] was 7%, the Activity [15] was 25% and the Activity [3] was 0%. It also gave an Activity [4] of 0%, an Activity [16] of 48% and an Activity [17] of 20%. For the same compound, the Activity [5] was 86%, the Activity [6] was 80% and the Activity [7] was 0%. For the same compound, the Activity [8] was 0%, the Activity [9] was 0% and the Activity [18] was 10%.
